Assay results: patent US4001325A, “α-Chloroacetanilide selective herbicides” (Diamond Shamrock Corporation, priority 1973, dated 1977)

Columns and labels:
Corn = experiment: Field preemergence test, phytotoxic effects on crop; assay type: in vivo, sweet corn
Excerpt: (§1) Test plots of fertilized, light sandy soil containing 0.7% organic matter are sprayed uniformly with aqueous suspensions prepared from emulsifiable concentrates containing 12%, by weight, of the test chemicals diluted to provide dosage rates of the test compounds corresponding to 2.0, 1.0, 0.5, and 0.25 pound per acre (lb/A). The plots are then sown with seeds of the following crop plants: sweet corn, cotton (Coker 413) and soybeans, var. Davis. Seeds of the following weed plants are planted: redroot pigweed, prickly sida, common lambsquarter, goosegrass and giant foxtail.
(§2) Three to four weeks after planting, percent control (plant kill) of the test plants is estimated, from a rating of 0 which denotes no injury to the plant up to 100 which denotes complete destruction. The herbicidal action of the test compounds obtained on the weed species is as follows:
(§3) Phytotoxic effects observed on the crop species is estimated with results as follows: […]

Soybeans = experiment: as above; assay type: in vivo, var. Davis
Excerpt: as §1, §2, §3

Cotton = experiment: as above; assay type: in vivo, cotton (Coker 413)
Excerpt: as §1, §2, §3

Giant Foxtail = experiment: Field preemergence test, weed control; assay type: in vivo; conditions: 3-4 weeks after planting
Excerpt: as §1
(§4) Three to four weeks after planting, percent control (plant kill) of the test plants is estimated, from a rating of 0 which denotes no injury to the plant up to 100 which denotes complete destruction. The herbicidal action of the test compounds obtained on the weed species is as follows: […]

Common Lambsquarter = experiment: Field preemergence test, weed control; assay type: in vivo; conditions: 3-4 weeks after planting
Excerpt: as §1, §4

Goosegrass = experiment: Field preemergence test, weed control; assay type: in vivo; conditions: 3-4 weeks after planting
Excerpt: as §1, §4

Prickly Sida = experiment: Field preemergence test, weed control; assay type: in vivo; conditions: 3-4 weeks after planting
Excerpt: as §1, §4

Redroot Pigweed = experiment: Field preemergence test, weed control; assay type: in vivo; conditions: 3-4 weeks after planting
Excerpt: as §1, §4

[1] = system: broadleaf species: pigweed, velvetleaf, morningglory; experiment: Greenhouse preemergence herbicide test, broadleaves; assay type: in vivo; conditions: two weeks after treatment, 20160 min
Method: (§5) To illustrate the preemergence herbicidal efficiency of the alkyl-substituted 2-chloro-N-propargylacetanilides of this invention, test formulations are prepared of each compound by mixing 20 ml of an acetone solution containing 0.125 g of chemical with 20 ml of water containing 0.01 g of Triton X-155 surfactant. The resultant formulations contain 3125 ppm of test compound, 50% by volume of acetone and 0.025% by weight of surfactant. Appropriate lower concentrations are obtained by diluting this formulation with surfactant-acetone solution so that the concentration of adjuvants is maintained at the original levels.
(§6) Seeds of three broadleaf and three grass species are planted in soil contained in 10 inch × 8 inch × 3 inch aluminum pans filled with 1.5 inches of composted soil. The broadleaf species are pigweed (Amaranthus retroflexus), velvetleaf (Abutilon theophrasti), and morningglory (Ipomea coccinea); the grasses are red millet (Panicum milliacem), green foxtail (Setaria viridis) and Japanese millet (Echinochloa frumentacea).
(§7) The seeded pans are sprayed so that the soil surface is uniformly covered with dilutions of the stock formulation providing dosage rates of the test compounds as shown in the following table.
(§8) Two weeks after treatment, percent control (plant kill) at each dosage rate is estimated with results as follows: […]

[2] = system: grass species: red millet, green foxtail, Japanese millet; experiment: Greenhouse preemergence herbicide test, grasses; assay type: in vivo, Panicum milliacem, Setaria viridis, Echinochloa frumentacea; conditions: pre-emergence, 336 h, two weeks after treatment; for pest or weed control at 69.4927 g/ha: 0.062 lb/A; for pest or weed control at 140.106 g/ha: 0.125 lb/A; for pest or weed control at 280.212 g/ha: 0.25 lb/A; for pest or weed control at 560.425 g/ha: 0.5 lb/A; for pest or weed control at 1120.85 g/ha: 1.0 lb/A
Method: as §5, §6, §7, §8

Compound	% Crop Kill, Corn (Corn; 0.5 lb/A)	% Crop Kill, Corn (Corn; 1.0 lb/A)	% Crop Kill, Corn (Corn; 2.0 lb/A)	% Crop Kill, Soybeans (Soybeans; 0.5 lb/A)	% Crop Kill, Soybeans (Soybeans; 1.0 lb/A)	% Crop Kill, Soybeans (Soybeans; 2.0 lb/A)	% Crop Kill, Cotton (Cotton; 0.5 lb/A)	% Crop Kill, Cotton (Cotton; 1.0 lb/A)	% Crop Kill, Cotton (Cotton; 2.0 lb/A)	% Weed Control, Giant Foxtail (Giant Foxtail; 0.25 lb/A)	% Weed Control, Giant Foxtail (Giant Foxtail; 0.5 lb/A)	% Weed Control, Giant Foxtail (Giant Foxtail; 1.0 lb/A)	% Weed Control, Giant Foxtail (Giant Foxtail; 2.0 lb/A)	% Weed Control, Common Lambsquarter (Common Lambsquarter; 0.25 lb/A)	% Control, Broadleaves ([1]; 1.0 lb/A)	pest or weed control at 69.4927 g/ha [2]	pest or weed control at 140.106 g/ha [2]	pest or weed control at 280.212 g/ha [2]	pest or weed control at 560.425 g/ha [2]	pest or weed control at 1120.85 g/ha [2]	also measured
C#CCN(C(=O)CCl)c1ccccc1C [Example 10, 2-Chloro-2'-methyl-N-propargylacetanilide]	0%	0%	0%	0%	0%	0%	0%	3%	3%	0%	20%	70%	80%	40%	35%	0%	55%	85%	80%	90%	% Weed Control, Common Lambsquarter (Common Lambsquarter; 0.5 lb/A): 60%; % Weed Control, Common Lambsquarter (Common Lambsquarter; 1.0 lb/A): 95%; % Weed Control, Common Lambsquarter (Common Lambsquarter; 2.0 lb/A): 95%; % Weed Control, Goosegrass (Goosegrass; 0.25 lb/A): 53%; % Weed Control, Goosegrass (Goosegrass; 0.5 lb/A): 78%; % Weed Control, Goosegrass (Goosegrass; 1.0 lb/A): 92%; % Weed Control, Goosegrass (Goosegrass; 2.0 lb/A): 97%; % Weed Control, Prickly Sida (Prickly Sida; 0.25 lb/A): 0%; % Weed Control, Prickly Sida (Prickly Sida; 0.5 lb/A): 0%; % Weed Control, Prickly Sida (Prickly Sida; 1.0 lb/A): 0%; % Weed Control, Prickly Sida (Prickly Sida; 2.0 lb/A): 25%; % Weed Control, Redroot Pigweed (Redroot Pigweed; 0.25 lb/A): 0%; % Weed Control, Redroot Pigweed (Redroot Pigweed; 0.5 lb/A): 27%; % Weed Control, Redroot Pigweed (Redroot Pigweed; 1.0 lb/A): 45%; % Weed Control, Redroot Pigweed (Redroot Pigweed; 2.0 lb/A): 67%; % Control, Broadleaves ([1]; 0.062 lb/A): 0%; % Control, Broadleaves ([1]; 0.125 lb/A): 0%; % Control, Broadleaves ([1]; 0.25 lb/A): 0%; % Control, Broadleaves ([1]; 0.5 lb/A): 0%
C#CCN(C(=O)CCl)c1ccccc1CC [Example 11, 2-Chloro-2'-ethyl-N-propargylacetanilide]	0%	0%	0%	0%	0%	3%	0%	10%	18%	0%	23%	45%	90%	50%	35%	0%	55%	80%	90%	95%	% Weed Control, Common Lambsquarter (Common Lambsquarter; 0.5 lb/A): 70%; % Weed Control, Common Lambsquarter (Common Lambsquarter; 1.0 lb/A): 100%; % Weed Control, Common Lambsquarter (Common Lambsquarter; 2.0 lb/A): 100%; % Weed Control, Goosegrass (Goosegrass; 0.25 lb/A): 62%; % Weed Control, Goosegrass (Goosegrass; 0.5 lb/A): 82%; % Weed Control, Goosegrass (Goosegrass; 1.0 lb/A): 100%; % Weed Control, Goosegrass (Goosegrass; 2.0 lb/A): 100%; % Weed Control, Prickly Sida (Prickly Sida; 0.25 lb/A): 0%; % Weed Control, Prickly Sida (Prickly Sida; 0.5 lb/A): 13%; % Weed Control, Prickly Sida (Prickly Sida; 1.0 lb/A): 33%; % Weed Control, Prickly Sida (Prickly Sida; 2.0 lb/A): 57%; % Weed Control, Redroot Pigweed (Redroot Pigweed; 0.25 lb/A): 33%; % Weed Control, Redroot Pigweed (Redroot Pigweed; 0.5 lb/A): 75%; % Weed Control, Redroot Pigweed (Redroot Pigweed; 1.0 lb/A): 80%; % Weed Control, Redroot Pigweed (Redroot Pigweed; 2.0 lb/A): 98%; % Control, Broadleaves ([1]; 0.5 lb/A): 0%
C#CCN(C(=O)CCl)c1c(C)cccc1C(C)C [Example 12, 2-Chloro-2'-methyl-6'-isopropyl-N-propargylacetanilide]															0%	45%	65%		70%	90%	% Control, Broadleaves ([1]; 2.0 lb/A): 40%; pest or weed control at 2241.7 g/ha ([2]; 2.0 lb/A): 90%
C#CCN(C(=O)CCl)c1c(C(C)C)cccc1C(C)C [Example 13, 2-Chloro-2',6'-diisopropyl-N-propargylacetanilide]															0%		20%	50%	90%	90%	
C#CCN(C(=O)CCl)c1c(CC)cccc1C(C)C [Example 14, 2-Chloro-2'-ethyl-6'-isopropyl-N-propargylacetanilide]															0%		40%	40%	80%	100%	
C#CCN(C(=O)CCl)c1ccccc1C(C)C [Example 16, 2-Chloro-2'-isopropyl-N-propargylacetanilide]															0%			80%	90%	100%	
